Results as given in patent US12116574B2, “Anti-inflammatory treatment via inhibition of endothelial cell kinesin light chain 1, variant 1 (KLC1C)” (Northwestern University, priority 2016, dated 2024).
“Also recorded” adds a separate entry of the source.

What was measured:
Assay type in all cases: cell-based, human
HUVEC = assay: Standard one hour Transendothelial Migration (TEM) assay on transduced HUVEC
Procedure: (§1) 293A cells were grown on 100 mm dishes to 70-90% confluency and then transfected with adenoviral constructs using Lipofectamine 2000 for delivery. Amplified virus that expressed KHC and KLC knockdown and rescue constructs was purified and used to in transduction of HUVEC for knockdown and rescue experiments (VIRAPOWER Adenoviral Expression System).
The TEM assay is a quantitative assay designed to assess, using large numbers of transmigration events (more than 300 per variable tested), the effect of various treatments such as knocking down Kinesin-1, on the process of transmigration. As routinely performed in our lab (refs. 19,21; herein incorporated by reference in their entireties), peripheral blood mononuclear cells (PBMC, to assess monocyte transmigration) from healthy volunteers are purified on a Ficoll density gradient and then washed in Hanks' buffered saline solution (HBSS) plus 0.1% human serum albumin. Following this wash, they are resuspended in Medium 199 plus 0.1% human serum albumin. 2×10^6 cells are added to confluent TNF-α activated (10 ng/mL, >4 hrs) human umbilical vein endothelial cell (HUVEC) monolayers grown on hydrated collagen gels and incubated for 1 h at 37° C. in a CO2 incubator (ref. 22; herein incorporated by reference in its entirety). This is enough time to allow maximum TEM of control cells (˜90%).
To assess the role of microtubule motors in leukocyte TEM, control and experimentally treated HUVEC are compared side by side in this assay. The co-culture is washed with cold PBS and fixed overnight with 2.5% glutaraldehyde in 0.1 M sodium cacodylate buffer, pH 7.4. TEM is quantitated by Nomarski optics (ref. 21; herein incorporated by reference in its entirety). […] Monocytes are scored in each of several random fields for each monolayer until at least 100 are counted, with 3 replicate monolayers for each condition for a total of over 300 cells per variable tested. To avoid unintentional bias, all cells in the field are counted. Data are expressed as the percent of total leukocytes (attached plus transmigrated) that have transmigrated.

[1] = test system: lateral border recycling compartment (LBRC) in HUVEC; assay: Targeted Recycling assay (LBRC recruitment to transmigrating leukocytes); conditions: transduced HUVEC, 8.5 minutes
Procedure: The Targeted Recycling assay determines whether the LBRC has been recruited to transmigrating leukocytes. Targeted recycling was performed as described previously (ref 5; herein incorporated by reference in its entirety). HUVEC monolayers are incubated with an Fab fragment of P1.1 mAb for 1 h at 37° C. in a CO2 incubator. […] HUVEC are then put on ice and washed with PBS to remove any free unbound Fab, followed by an incubation with an excess of F(ab′)2 fragment of unlabeled goat anti-mouse IgG on ice for 1 h. This saturably binds all of the Fab that is present on the surface of the endothelial junction, but will not enter the LBRC at this temperature. Free antibody is washed away and 2×10^6 PBMCs mixed with Alexa-568-conjugated F(ab′)2 fragment of the same goat […] transmigration to begin. Cells are then put on ice and washed with ice-cold PBS, followed by fixation in 2% paraformaldehyde for 10 min at room temperature.
In this procedure, only PECAM that was originally in the LBRC and recycled to the surface during the transmigration period will be labeled with the fluorescent secondary antibody, since it was protected from the unlabeled secondary antibody during the incubation on ice. The synchronized transmigration for a short time (8 minutes) catches leukocytes early in the act of transmigration before significant constitutive recycling and a corresponding increase in the staining of uninvolved junction occurs.
Confocal fluorescence microscopy is used to image the targeted recycling events. Leukocytes are identified with fluorescently conjugated mAb against CD18 (IB4). […] The number of monocytes in contact with the endothelial monolayer at cell junctions was assessed, and of those, it was determined how many are contacted by membrane from the LBRC. The intensity of fluorescent Goat-anti-mouse mAb was measured to quantify enrichment of recycling LBRC around transmigrating leukocytes. One-pixel-wide lines are drawn along the area surrounding the site of diapedesis. The mean fluorescence intensity in contact with the leukocyte is divided by the average intensity of constitutively recycled PECAM at the adjacent cell border to calculate LBRC enrichment around transmigrating leukocytes. Multiple monolayers were examined until at least one hundred transmigration events are observed for each variable tested. To avoid unintentional bias each leukocyte in contact with the endothelial border is scored, whether or not it has initiated TEM. […] Image processing and quantification of data are performed using Volocity and ImageJ (NIH) image processing software.

Kinesin-1 = assay: Western Blot of Kinesin-1 in virally-transduced HUVEC; conditions: Kinesin-1 shRNA plus mCherry-tagged rescue construct
Procedure: as §1
HUVEC were harvested for SDS-PAGE by washing with PBS and adding sample buffer. DNA was sheared by passing through a 27 G needle 10 times and samples were heated to 100° C. for 5 minutes. Samples were separated on 8% polyacrylamide gels and transferred onto polyvinyldifluoride membranes before blocking with 5% milk in PBS with 0.05% Tween and probing with primary antibodies. Blots were incubated with horseradish peroxidase-conjugated secondary antibodies in 5% milk in PBS with 0.05% Tween, then washed, and detected using chemiluminescence and exposure to X-ray film.

| Substance | transmigration (TEM) of monocytes (HUVEC) | LBRC enrichment around monocytes at endothelial junctions [1] | targeted recycling of the LBRC [1] | targeted recycling of the LBRC ([1]; listed as KLC1 Variant 1 shRNA) | Kinesin-1 expression after rescue of knockdown (Kinesin-1) |
| --- | --- | --- | --- | --- | --- |
| KLC1 variants 2 & 3 shRNA: shRNA targeting KLC1 isoform variants 2 (NM_182923.3) and 3 (NM_001130107.1); 5′-GCATAGGACATGATACTAA-3′ (SEQ ID NO: 12) (the letters are possibly those of the target site) | not |  |  |  |  |
| KLC1 variant 1 shRNA: shRNA targeting 3′ noncoding region of KLC1 isoform variant 1 (NM_005552.4); 5′-TGTATTTGTGTCTTTCTAA-3′ (SEQ ID NO: 11) (the letters are possibly those of the target site) | reduced; also recorded: blocks | significantly diminished | significantly diminished | significantly decreased |  |
| Kinesin-1 rescue construct: KHC rescue construct with silent point mutations in the targeted sequences and in-frame mCherry tag at the 3′ end | rescued |  | restored targeted recycling to control levels |  | rescued |
